The source of these data is ChEMBL document CHEMBL3397033, “Bioactive benzofuran derivatives: moracins A-Z in medicinal chemistry” (Eur J Med Chem, 2015).

Structures are written as SMILES. ≈ marks a conversion by molar mass, not a printed value.

In series [1] the test system is Escherichia coli. The experiment in a line: Antimicrobial activity against Escherichia coli. Type of series: functional.
Series [2] deals with Klebsiella pneumoniae. The experiment in a line: Antimicrobial activity against Klebsiella pneumoniae. Format: functional.
The test system of series [3] is Pseudomonas aeruginosa. Nature of the series: Antimicrobial activity against Pseudomonas aeruginosa. Type of series: functional.
Series [4] concerns Citrobacter freundii. Nature of the series: Antimicrobial activity against Citrobacter freundii by liquid microdilution assay. Type of series: functional. (In general: Dilution methods test growth across graded concentrations, often in twofold steps.)
Series [5] has as its system Escherichia coli. Nature of the series: Antimicrobial activity against Escherichia coli by liquid microdilution assay. Format: functional.
In series [6] the test system is Shigella dysenteriae. Nature of the series: Antimicrobial activity against Shigella dysenteriae by liquid microdilution assay. Type of series: functional.
Series [7] relates to Pseudomonas aeruginosa. The experiment in a line: Antimicrobial activity against Pseudomonas aeruginosa by liquid microdilution assay. Type of series: functional.
In series [8] the test system is Klebsiella pneumoniae. The experiment in a line: Antimicrobial activity against Klebsiella pneumoniae by liquid microdilution assay. Type of series: functional.
Series [9] deals with Salmonella typhi. The experiment in a line: Antimicrobial activity against Salmonella typhi by liquid microdilution assay. Format: functional, Salmonella enterica subsp. enterica serovar Typhi. Conditions: Salmonella enterica.
Series [10] has as its system Bacillus cereus. Nature of the series: Antimicrobial activity against Bacillus cereus by liquid microdilution assay. Format: functional.
Series [11] deals with Staphylococcus aureus. The experiment in a line: Antimicrobial activity against Staphylococcus aureus by liquid microdilution assay. Format: functional.
Series [12] relates to Enterococcus faecalis. Nature of the series: Antimicrobial activity against Streptococcus faecalis by liquid microdilution assay. Format: functional.
Series [13] deals with Candida albicans. Nature of the series: Antimicrobial activity against Candida albicans by liquid microdilution assay. Format: functional.
Series [14] deals with Microsporum audouinii. Nature of the series: Antimicrobial activity against Microsporum audouinii by liquid microdilution assay. Format: functional.
Series [15] deals with Citrobacter freundii. The experiment in a line: Microbicidal activity against Citrobacter freundii by liquid microdilution assay. Type of series: functional.
For series [16], the system named is Escherichia coli. The experiment in a line: Microbicidal activity against Escherichia coli by liquid microdilution assay. Format: functional.
In series [17] the test system is Shigella dysenteriae. Nature of the series: Microbicidal activity against Shigella dysenteriae by liquid microdilution assay. Type of series: functional.
For series [18], the system named is Pseudomonas aeruginosa. The experiment in a line: Microbicidal activity against Pseudomonas aeruginosa by liquid microdilution assay. Format: functional.
Series [19] relates to Klebsiella pneumoniae. Nature of the series: Microbicidal activity against Klebsiella pneumoniae by liquid microdilution assay. Type of series: functional.
The test system of series [20] is Salmonella typhi. Nature of the series: Microbicidal activity against Salmonella typhi by liquid microdilution assay. As to conditions: Salmonella enterica. Type of series: functional, Salmonella enterica subsp. enterica serovar Typhi.
In series [21] the test system is Bacillus cereus. The experiment in a line: Microbicidal activity against Bacillus cereus by liquid microdilution assay. Format: functional.
The test system of series [22] is Staphylococcus aureus. Nature of the series: Microbicidal activity against Staphylococcus aureus by liquid microdilution assay. Format: functional.
The subject of series [23] is Enterococcus faecalis. Nature of the series: Microbicidal activity against Streptococcus faecalis by liquid microdilution assay. Type of series: functional.
The subject of series [24] is Candida albicans. Nature of the series: Microbicidal activity against Candida albicans by liquid microdilution assay. Format: functional.
For series [25], the system named is Microsporum audouinii. The experiment in a line: Microbicidal activity against Microsporum audouinii by liquid microdilution assay. Type of series: functional.
Series [26] is described as follows: Antioxidant activity assessed as DPPH radical scavenging activity measured as discoloration at 12.5 ug/ml. Type of series: physicochemical. On the technique in general: Loss of DPPH colour is used to gauge radical scavenging.
Series [27] can be described thus: Antioxidant activity assessed as DPPH radical scavenging activity measured as discoloration at 25 ug/ml. Format: physicochemical.
The nature of series [28]: Antioxidant activity assessed as DPPH radical scavenging activity measured as discoloration at 50 ug/ml. Format: physicochemical.
The nature of series [29]: Antioxidant activity assessed as DPPH radical scavenging activity measured as discoloration at 100 ug/ml. Format: physicochemical.
A short description of series [30]: Antioxidant activity assessed as DPPH radical scavenging activity. Type of series: physicochemical.
The subject of series [31] is RAW264.7. Nature of the series: Antiinflammatory activity against mouse RAW264.7 cells assessed as reduction of IFNgamma-induced NO production. Type of series: functional, cell-based.
Series [32] concerns RAW264.7. Nature of the series: Antiinflammatory activity against mouse RAW264.7 cells assessed as reduction of LPS-induced NO production. Format: functional, cell-based.
A further series has as its system A549. Nature of the series: Cytotoxicity against human A549 cells after 96 hrs by MTT assay. Format: functional, cell-based. Conditions: A549, 96 h. For orientation: Formazan colour is commonly taken as a measure of viable cells.
Series [33] can be described thus: Cytotoxicity against human Bel7402 cells after 96 hrs by MTT assay. Type of series: functional, cell-based. Conditions: Bel-7402, 96 h.
Series [34] in a line: Cytotoxicity against human BGC823 cells after 96 hrs by MTT assay. Format: functional, cell-based. Conditions: BGC-823, 96 h.
A short description of series [35]: Cytotoxicity against human HCT8 cells after 96 hrs by MTT assay. Type of series: functional, cell-based. Conditions: HCT-8, 96 h.
The test system of the next series is A2780. The experiment in a line: Cytotoxicity against human A2780 cells after 96 hrs by MTT assay. Type of series: functional, cell-based. Conditions: A2780, 96 h.

With `CC1=CCc2c(c(O)cc3cc(-c4cc(O)cc(O)c4)oc23)OC1`, the MIC against Escherichia coli [1], against Klebsiella pneumoniae [2] and against Pseudomonas aeruginosa [3] was more than 100 µg/mL throughout.

Take `COc1c(O)cc2oc(-c3cc(O)cc(O)c3)cc2c1CC=C(C)C`: the MIC is more than 100 µg/mL against Escherichia coli [1]; more than 100 µg/mL with Klebsiella pneumoniae [2]; more than 100 µg/mL against Pseudomonas aeruginosa [3]; 156 µg/mL (≈ 458 µM) against Citrobacter freundii [4]; 5 µg/mL (≈ 14.7 µM) with Escherichia coli [5]; 5 µg/mL (≈ 14.7 µM) with Shigella dysenteriae [6]. Besides, the MIC is 5 µg/mL (≈ 14.7 µM) against Pseudomonas aeruginosa [7]; 39 µg/mL (≈ 115 µM) in the series on Klebsiella pneumoniae [8]; 5 µg/mL (≈ 14.7 µM) in the series on Salmonella typhi [9]; 5 µg/mL (≈ 14.7 µM) against Bacillus cereus [10]; 10 µg/mL (≈ 29.4 µM) in the series on Staphylococcus aureus [11]; 10 µg/mL (≈ 29.4 µM) in the series with Enterococcus faecalis [12]. The MIC in the series with Candida albicans [13] was found to be 10 µg/mL (≈ 29.4 µM); against Microsporum audouinii [14], 39 µg/mL (≈ 115 µM). Besides, the minimal bactericidal concentration (MBC) against Citrobacter freundii [15] was 312 µg/mL (≈ 917 µM); in the series on Escherichia coli [16], 10 µg/mL (≈ 29.4 µM); in the series on Shigella dysenteriae [17], 10 µg/mL (≈ 29.4 µM); in the series with Pseudomonas aeruginosa [18] it was 20 µg/mL (≈ 58.8 µM); against Klebsiella pneumoniae [19] it was 78 µg/mL (≈ 229 µM); against Salmonella typhi [20], 20 µg/mL (≈ 58.8 µM). Moreover, the MBC against Bacillus cereus [21], against Staphylococcus aureus [22] and with Enterococcus faecalis [23] was 39 µg/mL (≈ 115 µM) each time. Besides, the MFC against Candida albicans [24] turned out to be 20 µg/mL (≈ 58.8 µM); in the series with Microsporum audouinii [25], 78 µg/mL (≈ 229 µM). Further, the Activity in series [26] is recorded as 61.58%; in series [27], 65.63%; in series [28], 71.72%; in series [29], 83.04%. Besides, the 50% effective concentration (EC50) in [30] was 4.12 µg/mL (≈ 12.1 µM).

Regarding `CC(C)(O)C(O)Cc1cc2cc(-c3cc(O)cc(O)c3)oc2cc1O` (centres undefined), the minimal inhibitory concentration (MIC) was more than 100 µg/mL against Escherichia coli [1]; more than 100 µg/mL in the series on Klebsiella pneumoniae [2]; more than 100 µg/mL against Pseudomonas aeruginosa [3]; 78 µg/mL (≈ 227 µM) with Escherichia coli [5]; 78 µg/mL (≈ 227 µM) with Shigella dysenteriae [6]; 10 µg/mL (≈ 29 µM) in the series on Pseudomonas aeruginosa [7]. Besides, the MIC with Klebsiella pneumoniae [8] stood at 312 µg/mL (≈ 906 µM); in the series on Salmonella typhi [9] it was 156 µg/mL (≈ 453 µM); against Bacillus cereus [10], 156 µg/mL (≈ 453 µM); against Staphylococcus aureus [11], 312 µg/mL (≈ 906 µM); in the series with Enterococcus faecalis [12], 156 µg/mL (≈ 453 µM); in the series with Microsporum audouinii [14], 312 µg/mL (≈ 906 µM). Also, the minimum bactericidal concentration (MBC) stood at 625 µg/mL (≈ 1810 µM) in the series with Escherichia coli [16]; 312 µg/mL (≈ 906 µM) in the series on Shigella dysenteriae [17]; 39 µg/mL (≈ 113 µM) in the series on Pseudomonas aeruginosa [18]; 625 µg/mL (≈ 1810 µM) against Klebsiella pneumoniae [19]; 312 µg/mL (≈ 906 µM) against Salmonella typhi [20]; 625 µg/mL (≈ 1810 µM) against Bacillus cereus [21]. In addition, the minimal bactericidal concentration (MBC) with Staphylococcus aureus [22] was 625 µg/mL (≈ 1810 µM); with Enterococcus faecalis [23], 312 µg/mL (≈ 906 µM). The same compound displayed an MFC against Microsporum audouinii [25] of 625 µg/mL (≈ 1810 µM). Besides, the Activity in series [26] is recorded as 34.6%; in [27], 38.2%; in [28], 48%; in [29] it was 50%. Moreover, in series [30], the 50% effective concentration (EC50) is 7.17 µg/mL (≈ 20.8 µM). Further, the IC50 with RAW264.7 [31] and in the series with RAW264.7 [32] was 14.3 µM throughout.

`COc1cc2oc(-c3cc(O)cc(O)c3)cc2cc1O`: the minimum inhibitory concentration (MIC) in the series with Escherichia coli [1], against Klebsiella pneumoniae [2] and in the series on Pseudomonas aeruginosa [3] was more than 100 µg/mL in each case.

Regarding `CC(C)=CCc1c(O)ccc2cc(-c3cc(O)cc(O)c3)oc12`, the minimal inhibitory concentration (MIC) with Escherichia coli [1], against Klebsiella pneumoniae [2] and in the series with Pseudomonas aeruginosa [3] was more than 100 µg/mL throughout. For the same compound, the Activity is 55% in [26], 62.25% in [27], 67.87% in [28] and 69.72% in series [29]. For the same compound, the concentration giving a half-maximal response (EC50) in series [30] stood at 5.06 µg/mL (≈ 16.3 µM).

For `CC1(C)C=Cc2c(c(O)cc3cc(-c4cc(O)cc(O)c4)oc23)O1`, the MIC against Escherichia coli [1], with Klebsiella pneumoniae [2] and in the series on Pseudomonas aeruginosa [3] was more than 100 µg/mL throughout.

For `COc1cc2oc(-c3cc(O)cc(O)c3)cc2cc1CCC(C)(C)O`, the MIC with Escherichia coli [1], against Klebsiella pneumoniae [2] and against Pseudomonas aeruginosa [3] was more than 100 µg/mL each time.

On to `CC1(C)Oc2cc3oc(-c4cc(O)cc(O)c4)cc3cc2C(O)C1O` (centres undefined), for which the MIC in the series with Escherichia coli [1], in the series on Klebsiella pneumoniae [2] and against Pseudomonas aeruginosa [3] was more than 100 µg/mL in each case.

As to `Oc1cc(O)cc(-c2cc3cc4ccoc4cc3o2)c1`, the MIC against Escherichia coli [1], in the series with Klebsiella pneumoniae [2] and with Pseudomonas aeruginosa [3] was more than 100 µg/mL throughout. The half-inhibitory concentration (IC50) is 7.3 µg/mL (≈ 27.4 µM) in the series on A549; 5.9 µg/mL (≈ 22.2 µM) in series [33]; 3.8 µg/mL (≈ 14.3 µM) in [34]; 6.4 µg/mL (≈ 24 µM) in [35]; 5.9 µg/mL (≈ 22.2 µM) in the series on A2780.

In general, MIC refers to the lowest concentration found to suppress growth. A low value points to a more susceptible organism. In general, MBC refers to the lowest tested concentration that kills the bacteria rather than only halting them. By EC50 is commonly meant the concentration at which the effect is half-maximal. As usually defined, the IC50 is the midpoint of a concentration-inhibition curve.
